Laboratory results as given in patent US20260262647A1, “Synergistic Compositions Containing Guanidine” (Thor GmbH, priority 2023, published 2026).

Columns and labels:
Type in all cases: cell-based
yeast mixture [1] = assay: Laundry detergent inoculated once with yeast mixture, semiquantitative growth evaluation; design: key: 0: No growth; Minimal growth, 1 to 10 colonies visible over the entire streak; 2: Light growth, maximum 100 colonies; Moderate growth, maximum 300 to 400 colonies; Uniform growth, >400 colonies, single colonies still clearly recognizable; 5: Heavy growth, too many colonies to count, but no growth over the entire streak; 6: Full growth, barely any single colonies still apparent, growth over the entire streak; settings: Example 37, laundry detergent, +100 ppm BIT
Text: (§1) In examples 35 to 38 below, synergistic interaction between guanidine and antimicrobial substances with respect to microbial infestation was studied using an emulsion paint and a laundry detergent or cleaning composition by adding particular amounts of guanidine salts and isothiazolinones and examining their stability against microbial infestation: […] The laundry detergent was a heavy-duty laundry detergent without preservatives (pH 8.1), and the cleaning composition was an all-purpose detergent without preservatives (pH 7.6), each likewise made in the laboratory, without addition of the otherwise usual conventional preservatives. To each paint was added—individually and in combination—particular concentrations of guanidinium hydrochloride, benzisothiazolinone (BIT), and a mixture of chloromethylisothiazolinone (CIT) and methylisothiazolinone (MIT). The laundry detergent and the cleaning composition were admixed with particular concentrations of guanidinium hydrochloride and benzisothiazolinone (BIT). The resultant batches of the paint thus prepared were inoculated with a mixture of different bacteria species (bacteria mixture B); the batches of the laundry detergent and cleaning compositions thus prepared were inoculated with a yeast mixture. • Pichia manshurica DSM 12249 • Rhodotorula mucilaginosa DSM 12248 • Candida boidinii DSM 13622 • Candida albicans DSM 1386 […] Further steps for establishment of a cell count of the inoculum suspension of 10^8/ml were effected analogously to the production of the bacteria suspension. […] The streaked agar plates were then incubated at 30° C. for 48 hours (bacteria) or at 25° C. for 72 hours (yeasts). After incubation, the bacterial or yeast colonies that have grown on the agar plates were visually evaluated and quantified according to the following scheme: [table]

yeast mixture [2] = assay: All-purpose detergent inoculated once with yeast mixture, semiquantitative growth evaluation; design: key: 0: No growth; Minimal growth, 1 to 10 colonies visible over the entire streak; 2: Light growth, maximum 100 colonies; Moderate growth, maximum 300 to 400 colonies; Uniform growth, >400 colonies, single colonies still clearly recognizable; 5: Heavy growth, too many colonies to count, but no growth over the entire streak; 6: Full growth, barely any single colonies still apparent, growth over the entire streak; settings: Example 38, all-purpose detergent, +100 ppm BIT
Text: as §1

[3] = system: Pseudomonas spec. DSM 115322; assay: Minimum inhibitory concentrations and synergy index in Müller-Hinton broth
Method: (§2) Test organisms used were Gram-negative bacterial species from the group of pseudomonads, Pseudomonas putida DSM 115323 and Pseudomonas spec. DSM 115322. For this purpose, mixtures with different concentrations of the respective active substances were prepared and tested for their effect on the pseudomonads. The test was run in Müller-Hinton broth MHB with a cell density of 10^6 microbes per ml. When organic acids are used as a combination partner with the guanidine, MHB was adjusted to pH 5.5.
(§3) The incubation was run in microplates at 30° C. for 48 hours. After 48 hours, the batches were evaluated for turbidity resulting from growth, and optical density was additionally determined photometrically. In this way, the minimum inhibitory concentrations (MICs) of the two actives were determined individually and in combination.
(§4) The calculation was done according to the standard method of F. C. Kull et al., Applied Microbiology, vol. 9 (1961), p. 538.
(§5) This involves calculating the synergy index (SI) by the following formula:
(§6) [formula] • Qa=concentration of component A in the A+B mixture • QA=concentration of component A as the sole biocide • Qb=concentration of component B in the A+B mixture • QB=concentration of component B as the sole biocide
(§7) If the synergy index is greater than 1, this means that there is antagonism. If the synergy index assumes the value 1, this means that the effect of the two biocides/compounds is additive. If the synergy index assumes a value of less than 1, this means that there is synergism between the two biocides/compounds.

bacteria mixture B = assay: Emulsion paint inoculated once with bacteria mixture B, semiquantitative growth evaluation; design: key: 0: No growth; Minimal growth, 1 to 10 colonies visible over the entire streak; 2: Light growth, maximum 100 colonies; Moderate growth, maximum 300 to 400 colonies; Uniform growth, >400 colonies, single colonies still clearly recognizable; 5: Heavy growth, too many colonies to count, but no growth over the entire streak; 6: Full growth, barely any single colonies still apparent, growth over the entire streak; settings: Example 35, emulsion paint, +500 ppm BIT
Text: In examples 35 to 38 below, synergistic interaction between guanidine and antimicrobial substances with respect to microbial infestation was studied using an emulsion paint and a laundry detergent or cleaning composition by adding particular amounts of guanidine salts and isothiazolinones and examining their stability against microbial infestation: […] The laundry detergent was a heavy-duty laundry detergent without preservatives (pH 8.1), and the cleaning composition was an all-purpose detergent without preservatives (pH 7.6), each likewise made in the laboratory, without addition of the otherwise usual conventional preservatives. To each paint was added—individually and in combination—particular concentrations of guanidinium hydrochloride, benzisothiazolinone (BIT), and a mixture of chloromethylisothiazolinone (CIT) and methylisothiazolinone (MIT). The laundry detergent and the cleaning composition were admixed with particular concentrations of guanidinium hydrochloride and benzisothiazolinone (BIT). The resultant batches of the paint thus prepared were inoculated with a mixture of different bacteria species (bacteria mixture B); the batches of the laundry detergent and cleaning compositions thus prepared were inoculated with a yeast mixture. • Pseudomonas spp. (Pseudomonas oleovorans group) DSM 33933 • Pseudomonas aeruginosa DSM 33935 • Pseudomonas oleovorans DSM 33936 • Pseudomonas spec. DSM 33937 • Pseudomonas aeruginosa DSM 33938 […] The cell suspension of the bacteria mixture was produced by growing the individual bacteria at 30° C. for 24 h in liquid culture on a shaker. The growth medium used for the bacteria was Müller-Hinton liquid medium. After growing, the individual liquid cultures were centrifuged, and the cells were resuspended in physiological saline solution. […] The cell count of the inoculum was determined in each case by chamber counting. […] The streaked agar plates were then incubated at 30° C. for 48 hours (bacteria) or at 25° C. for 72 hours (yeasts). After incubation, the bacterial or yeast colonies that have grown on the agar plates were visually evaluated and quantified according to the following scheme: [table]

[4] = system: Pseudomonas putida DSM 115323; assay: Minimum inhibitory concentrations and synergy index in Müller-Hinton broth
Method: as §2, §3, §4, §5, §6, §7

bacteria mixture A = assay: Emulsion paint inoculated three times with bacteria mixture A, live bacteria count CFU/g; settings: for CFU/g after inoculation: emulsion paint, 7 d
Text: In example 34, the synergistic interaction between guanidine and a zinc compound (zinc oxide) with respect to microbial infestation was examined in an emulsion paint by adding particular amounts of guanidine in the form of guanidine hydrochloride and a zinc compound in the form of zinc oxide, and tested for stability to microbial infestation. The paint tested was an emulsion paint based on styrene-acrylate binder (PVK 77%, pH 8.8) for indoor use, produced in the laboratory, without addition of the usual preservatives.
The samples were inoculated repeatedly, three times in total, with a bacterial cell suspension of the following composition (2% v/w).
• Alcaligenes faecalis NCIMB 13145 • Escherichia coli DSM 13631 • Burkholderia cepacia DSM 9241 • Staphylococcus aureus DSM 799 • Pseudomonas aeruginosa DSM 50071 • Pseudomonas putida DSM 13624
The cell suspension of the bacteria mixture A was produced by growing the individual bacteria at 30° C. for 24 h in liquid culture on a shaker. The growth medium used for the bacteria was Müller-Hinton liquid medium. After growing, the individual liquid cultures were centrifuged, and the cells were resuspended in physiological saline solution. In order to adjust the mixture to a total cell count of 10^9/ml, the individual bacteria suspensions, if necessary, were diluted accordingly before being combined with saline solution. The cell count of the inoculum was determined in each case by chamber counting.
After each inoculation and after incubation at 30° C. for 7 days, microbial infestation was evaluated in the samples by determining the live bacteria count per g of paint (colony-forming units, CFU/g). The CFU/g was determined each time by taking an aliquot (1 g) from the previously homogenized sample and running a serial decadic dilution series in physiological saline solution (0.9% NaCl) by streaking on tryptic soy agar, followed by incubation of the agar plates at 30° C. for 48 h.

`O=c1[nH]sc2ccccc12` [BIT, 1,2-benzisothiazolin-3-one] was tested, and the Bacterial growth (yeast mixture [1]; Day 1) was 6, the Bacterial growth (yeast mixture [1]; Day 3) was 4 (Uniform growth, >400 colonies, single colonies still clearly recognizable) and the Yeast growth (yeast mixture [2]; Day 1) was 6. For the same molecule, the Yeast growth (yeast mixture [2]; Day 3) was 4 (Uniform growth, >400 colonies, single colonies still clearly recognizable), the “QB: Concentration of BIT as the sole agent that shows an endpoint” value ([3]; BIT alone, 48 hours at 30° C.) was 300 ppm and the “Synergy index Qa/QA + Qb/QB” value ([3]; guanidine and BIT, Qa, Qb) was 1.00. The Bacterial growth (bacteria mixture B; Day 1) was 6 and the Bacterial growth (bacteria mixture B; Day 6) was 6.
For `Cn1sc(Cl)cc1=O` [CIT, 5-chloro-2-methyl-4-isothiazolin-3-one], the “QB: Concentration of CIT as the sole agent that shows an endpoint” value ([4]; CIT alone, 48 hours at 30° C.) was 3.0 ppm and the “Synergy index Qa/QA + Qb/QB” value ([4]; guanidine and CIT, Qa, Qb) was 1.00.
`[O]=[Zn]` [Zinc oxide, zinc oxide] was tested, and the CFU/g after inoculation (bacteria mixture A; Zinc oxide 125 ppm (100 ppm Zn), 1. inoculation) was 9.4 × 10^5 CFU/g, the CFU/g after inoculation (bacteria mixture A; Zinc oxide 125 ppm (100 ppm Zn), 2. inoculation) was >10^6 CFU/g and the CFU/g after inoculation (bacteria mixture A; Zinc oxide 125 ppm (100 ppm Zn), 3. inoculation) was >10^6 CFU/g. For the same molecule, the CFU/g after inoculation (bacteria mixture A; Zinc oxide 250 ppm (201 ppm Zn), 1. inoculation) was 2.2 × 10^4 CFU/g, the CFU/g after inoculation (bacteria mixture A; Zinc oxide 250 ppm (201 ppm Zn), 2. inoculation) was >10^6 CFU/g and the CFU/g after inoculation (bacteria mixture A; Zinc oxide 250 ppm (201 ppm Zn), 3. inoculation) was >10^6 CFU/g. For the same molecule, the CFU/g after inoculation (bacteria mixture A; Zinc oxide 500 ppm (402 ppm Zn), 1. inoculation) was 6.6 × 10^4 CFU/g, the CFU/g after inoculation (bacteria mixture A; Zinc oxide 500 ppm (402 ppm Zn), 2. inoculation) was >10^6 CFU/g and the CFU/g after inoculation (bacteria mixture A; Zinc oxide 500 ppm (402 ppm Zn), 3. inoculation) was >10^6 CFU/g. For the same molecule, the CFU/g after inoculation (bacteria mixture A; Zinc oxide 1000 ppm (803 ppm Zn), 1. inoculation) was 9.9 × 10^3 CFU/g, the CFU/g after inoculation (bacteria mixture A; Zinc oxide 1000 ppm (803 ppm Zn), 2. inoculation) was >10^6 CFU/g and the CFU/g after inoculation (bacteria mixture A; Zinc oxide 1000 ppm (803 ppm Zn), 3. inoculation) was >10^6 CFU/g. For the same molecule, the CFU/g after inoculation (bacteria mixture A; Zinc oxide 2500 ppm (2009 ppm Zn), 1. inoculation) was <100 CFU/g, the CFU/g after inoculation (bacteria mixture A; Zinc oxide 2500 ppm (2009 ppm Zn), 2. inoculation) was <100 CFU/g and the CFU/g after inoculation (bacteria mixture A; Zinc oxide 2500 ppm (2009 ppm Zn), 3. inoculation) was <100 CFU/g. For the same molecule, the “Synergy index Qa/QA + Qb/QB” value (bacteria mixture A; guanidine and zinc in emulsion paint, Qa, Qb) was 1.00 and the “QB: Concentration of zinc as the sole agent that shows an endpoint” value (bacteria mixture A; zinc (added as zinc oxide) alone in emulsion paint, endpoint after 3 inoculations up to a maximum of 1000 CFU/g) was 2009 ppm.
